{
  "source": "patent US5175153A",
  "about": "“Substituted alpha-amino acids having pharmaceutical activity” (Warner-Lambert Company, priority 1988, dated 1992)",
  "key": {"NMDA receptor": {"molecular_target": "NMDA receptor", "assay": "NMDA receptor binding assay using [^3 H]CPP as antagonist ligand", "conditions": "for IC50: [^3 H]CPP"}, "[1]": {"tested_on": "NMDA-induced seizure and death", "assay": "Inhibition of NMDA-induced seizures and death in mice", "type": "in vivo, male CF-1 mice", "conditions": "Mus musculus", "method": "Intraperitoneal injection of N-methyl-D-aspartic acid (NMDA) has been previously reported to induce clonic seizures in C57BL/6J mice (Bernard, P.S. et al, Models of N-methyl-D -aspartate antagonism: A comparison of 2-amino-7-phosphonoheptanoic acid with muscle relaxant drugs, 15th Annual Meeting, International Society for Neuroscience, 1985). In a modified version of the above protocol, male CF-1 mice received an intravenous injection of 25 mg/kg NMDA--behind the lateral aspect of the right eye. This induced a rapidly onsetting seizure followed shortly thereafter by death. […] ED50 were determined for inhibition of seizures and death through comparison of drug treatment groups (n=10) with their respective vehicle controls (n=10)."}, "[2]": {"assay": "Observation of drug effects or normal behavior in rats dosed with NMDA"}, "[3]": {"tested_on": "NMDA-Induced Subconvulsant Behavior", "assay": "Inhibitory effects in NMDA-induced subconvulsant behavior (tail biting) in Fisher rats", "type": "in vivo", "conditions": "for % Responders: 30 min before 50 mg/kg IV NMDA; for Latency (min ± S.E.) / % I: 30 min before NMDA; for Latency (min ± S.E.): 60 minutes=maximum; for % I: [1 - % test responders/% control responders] × 100", "method": "In a modification of those methods, subconvulsant tail biting was induced in Fisher rats by intravenous injection of 50 mg/kg NMDA. The incidence (%) and response time (60 minutes=maximum) of control and drug treated rats (I.P., 30 minutes before NMDA) were compared. The inhibitory effects of 2-amino-7-phosphonoheptanoic acid and Example VIII are shown in Table 2 (% responders and time (latency in minutes)).\n*Rats were dosed IP, 2 mls/kg 30 min before NMDA.\n**% I = [1 - % test responders/% control responders] × 100."}, "[4]": {"conditions": "0.5 h, IV, five minutes prior to 25 mg/kg IV NMDA, survivors at thirty minutes, read-out: Inhibition of Death ED50"}, "[5]": {"conditions": "IV, five minutes prior to 25 mg/kg IV NMDA, read-out: Inhibition of Seizures ED50"}},
  "note": "Like-named read-outs stand apart in the source and are kept apart here.",
  "data": [
    {"smiles": "NC(C(=O)O)c1cccc(CP(=O)(O)O)c1", "note": "(stereo not drawn) [Example II, Benzeneacetic Acid, α-Amino-3-(Phosphonomethyl)-]", "values": [
      {"measurement": "IC50", "setting": "NMDA receptor", "value": 11.8, "unit": "µM"}
    ]},
    {"smiles": "NC(C(=O)O)c1ccc(CP(=O)(O)O)cc1", "note": "(racemic) [Example VIII, (±)-α-Amino-4-(Phosphonomethyl)Benzeneacetic Acid]", "values": [
      {"measurement": "IC50", "setting": "NMDA receptor", "value": 0.99, "unit": "µM"},
      {"measurement": "most active of the most preferred compounds", "setting": "NMDA receptor; in words, test not given", "value": "most active compound"},
      {"measurement": "ED50", "setting": "[1]; [4]", "value": 7.6, "unit": "mg/kg"},
      {"measurement": "ED50", "setting": "[1]; [5]", "value": "> 30", "unit": "mg/kg"},
      {"measurement": "drug induced behavioral effects", "setting": "[2]; 37 mg/kg and 25 mg/kg IP", "value": "no drug induced behavioral effects"},
      {"measurement": "% Responders", "setting": "[3]; 25 mg/kg IP, phosphate buffer control 9/10", "value": "2/9"},
      {"measurement": "Latency (min ± S.E.)", "setting": "[3]; 25 mg/kg IP, p < 0.01, phosphate buffer 24.8 ± 4.9", "value": "51.6 ± 5.6", "unit": "min"},
      {"measurement": "% I", "setting": "[3]; 25 mg/kg IP", "value": 77.8, "unit": "%"},
      {"measurement": "% Responders", "setting": "[3]; 37 mg/kg IP, phosphate buffer control 9/10", "value": "1/10"},
      {"measurement": "Latency (min ± S.E.)", "setting": "[3]; 37 mg/kg IP, p < 0.001, phosphate buffer 24.8 ± 4.9", "value": "55.5 ± 4.5", "unit": "min"},
      {"measurement": "% I", "setting": "[3]; 37 mg/kg IP", "value": 88.9, "unit": "%"},
      {"measurement": "inhibitory effects compared with 7-APH", "setting": "[3]; in words, Table 2", "value": "inhibitory effects similar in potency and efficacy to 7-APH"}
    ]},
    {"smiles": "NC(Cc1cccc(CP(=O)(O)O)c1)C(=O)O", "note": "(centres unmarked) [Example III]", "values": [
      {"measurement": "IC50", "setting": "NMDA receptor", "value": 3.56, "unit": "µM"},
      {"measurement": "ED50", "setting": "[1]; [4]", "value": 37, "unit": "mg/kg"},
      {"measurement": "ED50", "setting": "[1]; [5]", "value": "~60", "unit": "mg/kg"}
    ]},
    {"smiles": "NC(CCCCCP(=O)(O)O)C(=O)O", "note": "(centres unmarked) [APH, 2-amino-7-phosphonoheptanoic acid, reference compound]", "values": [
      {"measurement": "IC50", "setting": "NMDA receptor", "value": 0.8, "unit": "µM"},
      {"measurement": "ED50", "setting": "[1]; iv, 0.5 h, read-out: Inhibition of Death ED50", "value": 30, "unit": "mg/kg"},
      {"measurement": "ED50", "setting": "[1]; iv, read-out: Inhibition of Seizures ED50", "value": "> 30", "unit": "mg/kg"},
      {"measurement": "drug induced behavioral effects", "setting": "[2]; 10 mg/kg IP", "value": "no drug induced behavioral effects"},
      {"measurement": "ataxia", "setting": "[2]; 30 mg/kg IP", "value": "no ataxia"},
      {"measurement": "exploratory behavior", "setting": "[2]; 30 mg/kg IP, versus controls", "value": "slightly less exploratory than controls"},
      {"measurement": "% Responders", "setting": "[3]; 10 mg/kg IP, saline control 9/10", "value": "6/10"},
      {"measurement": "Latency (min ± S.E.)", "setting": "[3]; 10 mg/kg IP, p < 0.001, saline 15.8 ± 5.3", "value": "43.3 ± 5.8", "unit": "min"},
      {"measurement": "% I", "setting": "[3]; 10 mg/kg IP", "value": 33.3, "unit": "%"},
      {"measurement": "% Responders", "setting": "[3]; 30 mg/kg IP, saline control 9/11", "value": "1/10"},
      {"measurement": "Latency (min ± S.E.)", "setting": "[3]; 30 mg/kg IP, p < 0.01, saline 33.1 ± 5.8", "value": "59.0 ± 1.0", "unit": "min"},
      {"measurement": "% I", "setting": "[3]; 30 mg/kg IP", "value": 87.8, "unit": "%"}
    ]},
    {"smiles": "NC(C(=O)O)c1cccc(P(=O)(O)O)c1", "note": "(racemic) [Example VI A, (±)-α-Amino-3-Phosphonobenzeneacetic Acid]", "values": [
      {"measurement": "IC50", "setting": "NMDA receptor", "value": 17.9, "unit": "µM"}
    ]}
  ]
}
